The source of these data is patent publication US20150057366A1, “SYNTHESIS OF ELEMICIN AND TOPICAL ANALGESIC COMPOSITIONS” (priority 2012, published 2015).

The assay can be described thus: Preliminary work by the applicant on topical analgesic effectiveness of elemicin compositions. Format: in vivo.

Regarding `C=CCc1cc(OC)c(OC)c(OC)c1` [elemicin, 1,2,3-Trimethoxy-5-prop-2-enylbenzene], the “elemicin content compositions require to start being effective as topical analgesics” value (topical composition, 30% more preferred, preliminary work) is “at least 20%”. Moreover, the “analgesic effectiveness at the concentrations occurring in natural oils” value (topical, around 2.4-3.0% in nutmeg and manila elemi oils, up to around 10-14% in mace and some elemi oil) is listed as “analgesic effectiveness does not occur at such low doses”.
As to `C/C=C/c1cc(OC)c(OC)c(OC)c1` [iso-elemicin], the “effectiveness in analgesic compositions” value (topical analgesic compositions, work thus far by the inventor) is given as “also effective”.
